Data on five compounds can be found in PubChem BioAssay AID1919006 (Molecular Pharmacology Branch, DTP, NCI, 2023).

Broadly, the IC50 is the concentration at which inhibition is half-maximal. As usually defined, the viability, T/C is the result in the treated group divided by that in the control group, in per cent.

This assay relates to 885512-296-R-J2-PDC complex spheroid growth, % test/control. The experiment in a line: Anticancer human tumor 885512-296-R-J2-PDC patient-derived breast carcinoma cell line growth inhibition [AhR]. Conditions: for viability, T/C: stronger effect = lower value. An outline of the steps: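 Agents were dosed in half-log steps down from roughly clinical Cmax, or from 10 microM where Cmax was unknown, alone and with AhR antagonists. Read-out: percent test/control growth of tumor spheroids containing HUVEC and MSC stromal cells.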

[1] abbreviates: curve of first compound, second compound 0.1 µM.
Where [2] appears, read: curve of first compound, second compound 0.316 µM.
The mark [3] stands for this setting: curve of first compound, second compound 1 µM.
Setting [4] is: curve of first compound, second compound 3.16 µM.
Where [5] appears, read: curve of first compound, second compound 10 µM.
[6] abbreviates: second compound 0.1 µM, first compound 0.0316 µM.
Setting [7] is: second compound 0.1 µM, first compound 0.1 µM.
Where [8] appears, read: second compound 0.316 µM, first compound 0.0316 µM.
[9] abbreviates: second compound 0.316 µM, first compound 0.1 µM.
The mark [10] stands for this setting: second compound 1 µM, first compound 0.0316 µM.
The mark [11] stands for this setting: second compound 1 µM, first compound 0.1 µM.
Where [12] appears, read: second compound 3.16 µM, first compound 0.0316 µM.
[13] abbreviates: second compound 3.16 µM, first compound 0.1 µM.
The mark [14] stands for this setting: second compound 10 µM, first compound 0.0316 µM.
Where [15] appears, read: second compound 10 µM, first compound 0.1 µM.

Where “and” joins values, the source holds several entries; their conditions need not be identical. Equal values may be shown once. Where only a bound is given, the exact number is not on record here.
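Also: spheroids exposed to compounds for seven days.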

For `CCN(c1cc(-c2ccc(CN3CCOCC3)cc2)cc(C(=O)NCc2c(C)cc(C)[nH]c2=O)c1C)C1CCOCC1` + Cc1cncc(-c2nc(NCCc3c[nH]c4ccccc34)c3ncn(C(C)C)c3n2)c1, the IC50 was greater than 3 µM under setting [1]; greater than 3 µM under setting [2]; greater than 3 µM under setting [3]; greater than 3 µM under setting [4]; less than 0.00949 µM under setting [5]. For the same compound, the viability, T/C is 98.8% (second compound 0.1 µM, first compound 0.00949 µM); 104% (second compound 0.1 µM, first compound 0.03 µM); 91.3% (second compound 0.1 µM, first compound 0.0949 µM); 87.8% (second compound 0.1 µM, first compound 0.3 µM); 94.8% (second compound 0.1 µM, first compound 0.949 µM); 83.3% (second compound 0.1 µM, first compound 3 µM). In addition, the viability, T/C was 102% (second compound 0.316 µM, first compound 0.00949 µM); 105% (second compound 0.316 µM, first compound 0.03 µM); 98% (second compound 0.316 µM, first compound 0.0949 µM); 94.9% (second compound 0.316 µM, first compound 0.3 µM); 88.5% (second compound 0.316 µM, first compound 0.949 µM); 74.8% (second compound 0.316 µM, first compound 3 µM). For the same compound, the viability, T/C is 91.4% (second compound 1 µM, first compound 0.00949 µM); 93.5% (second compound 1 µM, first compound 0.03 µM); 85.7% (second compound 1 µM, first compound 0.0949 µM); 73.6% (second compound 1 µM, first compound 0.3 µM); 72.8% (second compound 1 µM, first compound 0.949 µM); 80.1% (second compound 1 µM, first compound 3 µM). In addition, the viability, T/C is, setting by setting: (second compound 3.16 µM, first compound 0.00949 µM) 58.6%; (second compound 3.16 µM, first compound 0.03 µM) 62.1%; (second compound 3.16 µM, first compound 0.0949 µM) 59.9%; (second compound 3.16 µM, first compound 0.3 µM) 58.8%; (second compound 3.16 µM, first compound 0.949 µM) 53.5%; (second compound 3.16 µM, first compound 3 µM) 54.8%. Further, the viability, T/C was 21.8% (second compound 10 µM, first compound 0.00949 µM); 24.6% (second compound 10 µM, first compound 0.03 µM); 24.4% (second compound 10 µM, first compound 0.0949 µM); 18.8% (second compound 10 µM, first compound 0.3 µM); 13% (second compound 10 µM, first compound 0.949 µM); 8.18% (second compound 10 µM, first compound 3 µM).

`O=C(C=Cn1cnc(-c2cc(C(F)(F)F)cc(C(F)(F)F)c2)n1)NNc1cnccn1`: the viability, T/C was 95.6% and 113% and 96.3% (compound 0.00949 µM); 100% and 113% and 117% (compound 0.03 µM); 38% and 25% and 25.8% (compound 0.0949 µM); 5.56% and 4.15% and 4.46% (compound 0.3 µM); 2.2% and 1.47% and 2.93% (compound 0.949 µM); 1.21% and 0.91% and 1.13% (compound 3 µM). The IC50 (curve of compound) is 0.0753 µM and 0.0683 µM and 0.0671 µM.

In the case of `COc1cc(C2c3cc4c(cc3C(OC3OC5COC(C)OC5C(O)C3O)C3COC(=O)C23)OCO4)cc(OC)c1O` (stereo unspecified) + CC(CO)NC(=O)c1cc(-c2ccc(Cl)cc2)nn(-c2cnn(C)c2)c1=O, the IC50 reads like this: under setting [1], 0.771 µM; under setting [2], 0.694 µM; under setting [3], 0.671 µM; under setting [4], 0.49 µM; under setting [5], 0.31 µM. The viability, T/C under setting [6] was 102%; the viability, T/C under setting [7] was 106%; the viability, T/C (second compound 0.1 µM, first compound 0.316 µM) was 85.9%; the viability, T/C (second compound 0.1 µM, first compound 1 µM) is 39.8%; the viability, T/C (second compound 0.1 µM, first compound 3.16 µM) is 10.2%; the viability, T/C (second compound 0.1 µM, first compound 10 µM) was 7.1%. Moreover, the viability, T/C was 96.5% under setting [8]; 89.2% under setting [9]; 74.8% (second compound 0.316 µM, first compound 0.316 µM); 39.9% (second compound 0.316 µM, first compound 1 µM); 9.03% (second compound 0.316 µM, first compound 3.16 µM); 7.53% (second compound 0.316 µM, first compound 10 µM). Besides, the viability, T/C is 101% under setting [10]; 103% under setting [11]; 81.6% (second compound 1 µM, first compound 0.316 µM); 33.3% (second compound 1 µM, first compound 1 µM); 10.9% (second compound 1 µM, first compound 3.16 µM); 8.44% (second compound 1 µM, first compound 10 µM). Besides, the viability, T/C is 110% under setting [12]; 97.6% under setting [13]; 68.4% (second compound 3.16 µM, first compound 0.316 µM); 20.8% (second compound 3.16 µM, first compound 1 µM); 12.2% (second compound 3.16 µM, first compound 3.16 µM); 7.27% (second compound 3.16 µM, first compound 10 µM). Besides, the viability, T/C was 91.5% under setting [14]; 89.1% under setting [15]; 48.7% (second compound 10 µM, first compound 0.316 µM); 17.7% (second compound 10 µM, first compound 1 µM); 13.8% (second compound 10 µM, first compound 3.16 µM); 9.69% (second compound 10 µM, first compound 10 µM).

`CC[C@@]1(O)C(=O)OCc2c1cc1n(c2=O)Cc2cc3c(CN(C)C)c(O)ccc3nc2-1` + Cc1cncc(-c2nc(NCCc3c[nH]c4ccccc34)c3ncn(C(C)C)c3n2)c1: the IC50 runs as follows: under setting [1], 0.00546 µM; under setting [2], 0.00572 µM; under setting [3], 0.00447 µM; under setting [4], 0.00215 µM; under setting [5], less than 0.000316 µM. Further, the viability, T/C is 87.8% (second compound 0.1 µM, first compound 0.000316 µM); 96.1% (second compound 0.1 µM, first compound 0.001 µM); 67.6% (second compound 0.1 µM, first compound 0.00316 µM); 29.2% (second compound 0.1 µM, first compound 0.01 µM); 9.48% under setting [6]; 6.96% under setting [7]. Further, the viability, T/C was 102% (second compound 0.316 µM, first compound 0.000316 µM); 88.1% (second compound 0.316 µM, first compound 0.001 µM); 71.9% (second compound 0.316 µM, first compound 0.00316 µM); 30.6% (second compound 0.316 µM, first compound 0.01 µM); 9.89% under setting [8]; 4.62% under setting [9]. The viability, T/C is, setting by setting: (second compound 1 µM, first compound 0.000316 µM) 90.4%; (second compound 1 µM, first compound 0.001 µM) 82.2%; (second compound 1 µM, first compound 0.00316 µM) 62%; (second compound 1 µM, first compound 0.01 µM) 23.6%; under setting [10], 6.8%; under setting [11], 6.23%. The viability, T/C by setting is: (second compound 3.16 µM, first compound 0.000316 µM) 62.9%; (second compound 3.16 µM, first compound 0.001 µM) 60.1%; (second compound 3.16 µM, first compound 0.00316 µM) 44.5%; (second compound 3.16 µM, first compound 0.01 µM) 27.3%; under setting [12], 12.9%; under setting [13], 7.38%. Further, the viability, T/C was 21.8% (second compound 10 µM, first compound 0.000316 µM); 21.9% (second compound 10 µM, first compound 0.001 µM); 20.9% (second compound 10 µM, first compound 0.00316 µM); 13.7% (second compound 10 µM, first compound 0.01 µM); 11.5% under setting [14]; 4.72% under setting [15].

Turning to `CC(CO)NC(=O)c1cc(-c2ccc(Cl)cc2)nn(-c2cnn(C)c2)c1=O` (stereo unspecified), the viability, T/C was 96.5% [middle of 21 runs] (compound 0.316 µM), 98.8% [middle of 21 runs] (compound 1 µM) and 93.9% [middle of 19 runs] (compound 10 µM). Also, the IC50 (compound alone, run of 08/08/2022) is greater than 10 µM.
